We go through 18 molecules from patent US20230087342A1, “AZEPANE DERIVATIVE” (Nippon Chemiphar Co., Ltd., priority 2019, published 2023).

This test concerns the target T1, human κ opioid receptors (Homo sapiens, UniProt P41145).
T1 construct: host or cells: CHO cells
In words: Opioid receptor function test (Lance Ultra cAMP kit, agonist activity). The format is cell-based. Conditions: CHO cells expressing human κ opioid receptors, 10 μM forskolin, 30 minutes. Here is the method: Opioid Receptor Function Test
The function activity of the compound of the present invention on κ opioid receptors was examined.
Method: Using a Lance Ultra cAMP kit (Perkin Elmer), the examination was performed according to a predetermined method. In evaluation of agonist activity, CHO cells expressing human κ opioid receptors (Catalog No. CT6606, accession No. NM_000912) and a test compound were reacted in an assay buffer (1×HSS, 5 mM HEPES, pH 7.4, 0.5 mM IBMX (isobutylmethyixanthine), 0.1% SA) in the presence of 10 μM forskolin for 30 minutes. Subsequently, a cAMP detection reagent in the kit was added. One hour later, time-resolved fluorescence measurement was performed using an EnVision plate reader (Perkin Elmer). The evaluation of the test compound was performed in a concentration range of 10^−14 to 10^−7 M for the κ opioid receptor function test.

A word on the EC50: it is the concentration giving half of the maximal effect. Read a high EC50 as lower potency in that assay.

T1 sequence (P41145 whole entry): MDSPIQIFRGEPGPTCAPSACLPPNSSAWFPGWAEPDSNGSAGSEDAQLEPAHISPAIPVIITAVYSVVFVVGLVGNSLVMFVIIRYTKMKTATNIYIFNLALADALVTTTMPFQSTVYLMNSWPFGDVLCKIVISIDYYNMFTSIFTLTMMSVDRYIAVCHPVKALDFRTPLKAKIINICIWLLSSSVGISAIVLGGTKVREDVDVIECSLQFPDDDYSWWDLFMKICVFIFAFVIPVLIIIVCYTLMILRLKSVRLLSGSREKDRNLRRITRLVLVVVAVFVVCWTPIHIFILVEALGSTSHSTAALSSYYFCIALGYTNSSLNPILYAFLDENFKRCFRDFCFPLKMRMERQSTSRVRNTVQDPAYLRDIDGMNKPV

As to `N#Cc1cnn(CCN2CC[C@]34CCN(CC5CC5)[C@H](Cc5ccc(O)cc53)[C@]4(O)CC2)c1` [Example 189, 1-(2-((5aS,6R,11bS)-14-(cyclopropylmethyl)-5a,10-dihydroxy-1,2,5,5a,6,7-hexahydro-6,11b-(epiminoethano)naphtho[1,2-d]azepin-3(4H)-yl)ethyl)-1H-pyrazole-4-carbonitrile], the midpoint of the response, the EC50, lay at 0.39 nM.
`O=C(Cn1cc(C2CC2)cn1)N1CC[C@]23CCN(CC4CC4)[C@H](Cc4ccc(O)cc42)[C@]3(O)CC1` [Example 160, 2-(4-cyclopropyl-1H-pyrazol-1-yl)-1-((5aS,6R,11bR)-14-(cyclopropylmethyl)-5a,10-dihydroxy-1,2,5,5a,6,7-hexahydro-6,11b-(epiminoethano)naphtho[1,2-d]azepin-3(4H)-yl)ethan-1-one] registered an EC50 of 0.045 nM.
The same measure for `Oc1ccc2c(c1)[C@@]13CCN(CCCn4cc(C(F)(F)F)cn4)CC[C@@]1(O)[C@@H](C2)N(CC1CC1)CC3` [Example 179, (5aS,6R,11bS)-14-(cyclopropylmethyl)-3-(3-(4-(trifluoromethyl)-1H-pyrazol-1-yl)propyl)-2,3,4,5,6,7-hexahydro-6,11b-(epiminoethano)naphtho[1,2-d]azepine-5a,10(1H)-diol]: 0.024 nM; for `CN(C)CC(=O)N1CC[C@]23CCN(CC4CC4)[C@H](Cc4ccc(O)cc42)[C@]3(O)CC1` [Example 198, 1-((5aS,6R,11bR)-14-(cyclopropylmethyl)-5a,10-dihydroxy-1,2,5,5a,6,7-hexahydro-6,11b-(epiminoethano)naphtho[1,2-d]azepin-3(4H)-yl)-2-(dimethylamino)ethan-1-one]: 0.59 nM; for `Cc1cnn(CCN2CC[C@]34CCN(CC5CC5)[C@H](Cc5ccc(O)cc53)[C@]4(O)CC2(C)C)c1` [Example 270, (5aS,6R,11bR)-14-(cyclopropylmethyl)-4,4-dimethyl-3-(2-(4-methyl-1H-pyrazol-1-yl)ethyl)-2,3,4,5,6,7-hexahydro-6,11b-(epiminoethano)naphtho[1,2-d]azepine-5a,10(1H)-diol]: 0.052 nM.
The same measure for `Oc1ccc2c(c1)[C@@]13CCN(CCc4cnccn4)CC[C@@]1(O)[C@@H](C2)N(CC1CC1)CC3` [Example 84, (5aS,6R,11bS)-14-(cyclopropylmethyl)-3-(2-(pyrazin-2-yl)ethyl)-2,3,4,5,6,7-hexahydro-6,11b-(epiminoethano)naphtho[1,2-d]azepine-5a,10(1H)-diol]: 0.47 nM; for `Oc1ccc2c(c1)[C@@]13CCN(CCCc4ccccn4)CC[C@@]1(O)[C@@H](C2)N(CC1CC1)CC3` [Example 69, (5aS,6R,11bS)-14-(cyclopropylmethyl)-3-(3-(pyridin-2-yl)propyl)-2,3,4,5,6,7-hexahydro-6,11b-(epiminoethano)naphtho[1,2-d]azepine-5a,10(1H)-diol]: 0.28 nM; for `Oc1ccc2c(c1)[C@@]13CCN(CCn4ncc5ccccc54)CC[C@@]1(O)[C@@H](C2)N(CC1CC1)CC3` [Example 122, (5aS,6R,11bS)-3-(2-(1H-indazol-1-yl)ethyl)-14-(cyclopropylmethyl)-2,3,4,5,6,7-hexahydro-6,11b-(epiminoethano)naphtho[1,2-d]azepine-5a,10(1H)-diol]: 0.15 nM.
The same measure for `Cc1cccnc1CCN1CC[C@]23CCN(CC4CC4)[C@H](Cc4ccc(O)cc42)[C@]3(O)CC1` [Example 102, (5aS,6R,11bS)-14-(cyclopropylmethyl)-3-(2-(3-methylpyridin-2-yl)ethyl)-2,3,4,5,6,7-hexahydro-6,11b-(epiminoethano)naphtho[1,2-d]azepine-5a,10(1H)-diol]: 0.13 nM; for `Cc1cnn(C2CC(N3CC[C@]45CCN(CC6CC6)[C@H](Cc6ccc(O)cc64)[C@]5(O)CC3)C2)c1` (single isomer, unassigned) [Example 227 (II)]: 0.16 nM.
Turning to “(5aS,6R,11bS)-14-(cyclopropylmethyl)-3-((1R,3R)-3-(4-methyl-1H-pyrazol-1-yl)cyclopentyl)-2,3,4,5,6,7-hexahydro-6,11b-(epiminoethano)naphtho[1,2-d]azepine-5a,10(1H)-diol and (5aS,6R,11bS)-14-(cyclopropylmethyl)-3-((1S,3S)-3-(4-methyl-1H-pyrazol-1-yl)cyclopentyl)-2,3,4,5,6,7-hexahydro-6,11b-(epiminoethano)naphtho[1,2-d]azepine-5a,10(1H)-diol [Example 237]”, a half-maximal effect (EC50) was put at 0.29 nM.
The same measure for `CCCN1CC[C@]23CCN(CCc4ccccn4)CC[C@@]2(O)[C@H]1Cc1ccc(O)cc13` [Example 159, (5aS,6R,11bS)-14-propyl-3-(2-(pyridin-2-yl)ethyl)-2,3,4,5,6,7-hexahydro-6,11b-(epiminoethano)naphtho[1,2-d]azepine-5a,10(1H)-diol]: 0.77 nM; for `CC1(C)C[C@@]2(O)[C@H]3Cc4ccc(O)cc4[C@@]2(CCN3CC2CC2)CCN1C(=O)Cc1ccccn1` [Example 343, 1-((5aS,6R,11bR)-14-(cyclopropylmethyl)-5a,10-dihydroxy-4,4-dimethyl-1,2,5,5a,6,7-hexahydro-6,11b-(epiminoethano)naphtho[1,2-d]azepin-3(4H)-yl)-2-(pyridin-2-yl)ethan-1-one]: 0.56 nM; for `Cc1cc2c(cc1O)[C@@]13CCN(C(=O)Cc4cn5ccccc5n4)CC[C@@]1(O)[C@@H](C2)N(CC1CC1)CC3` [Example 314, 1-((5aS,6R,11bR)-14-(cyclopropylmethyl)-5a,10-dihydroxy-9-methyl-1,2,5,5a,6,7-hexahydro-6,11b-(epiminoethano)naphtho[1,2-d]azepin-3(4H)-yl)-2-(imidazo[1,2-a]pyridin-2-yl)ethan-1-one]: 0.27 nM.
The same measure for `CCc1cc(CC(=O)N2CC[C@]34CCN(CC5CC5)[C@H](Cc5ccc(O)cc53)[C@]4(O)CC2)no1` [Example 191, 1-((5aS,6R,11bR)-14-(cyclopropylmethyl)-5a,10-dihydroxy-1,2,5,5a,6,7-hexahydro-6,11b-(epiminoethano)naphtho[1,2-d]azepin-3(4H)-yl)-2-(5-ethylisoxazol-3-yl)ethan-1-one]: 0.48 nM.
The same measure for `Cn1nc(CC(=O)N2CC[C@]34CCN(CC5CC5)[C@H](Cc5ccc(O)cc53)[C@]4(O)CC2)cc1C(F)(F)F` [Example 36, 1-((5aS,6R,11bR)-14-(cyclopropylmethyl)-5a,10-dihydroxy-1,2,5,5a,6,7-hexahydro-6,11b-(epiminoethano)naphtho[1,2-d]azepin-3(4H)-yl)-2-(1-methyl-5-(trifluoromethyl)-1H-pyrazol-3-yl)ethan-1-one]: 0.025 nM; for `Cn1nc(CCN2CC[C@]34CCN(CC5CC5)[C@H](Cc5ccc(O)cc53)[C@]4(O)CC2)cc1C(F)(F)F` [Example 37, (5aS,6R,11bS)-14-(cyclopropylmethyl)-3-(2-(1-methyl-5-(trifluoromethyl)-1H-pyrazol-3-yl)ethyl)-2,3,4,5,6,7-hexahydro-6,11b-(epiminoethano)naphtho[1,2-d]azepine-5a,10(1H)-diol]: 0.051 nM.
`Cc1cnn(CCCN2CC[C@]34CCN(CC5CC5)[C@H](Cc5ccc(O)cc53)[C@]4(O)CC2)c1` [Example 230, (5aS,6R,11bS)-14-(cyclopropylmethyl)-3-(3-(4-methyl-1H-pyrazol-1-yl)propyl)-2,3,4,5,6,7-hexahydro-6,11b-(epiminoethano)naphtho[1,2-d]azepine-5a,10(1H)-diol] had an EC50 of 0.066 nM.
